Laboratory results taken from ChEMBL document CHEMBL5584312, “Insight into the Interaction of Humulus lupulus L. Specialized Metabolites and Gastrointestinal Bitter Taste Receptors: In Vitro Study in STC-1 Cells and Molecular Docking” (J Nat Prod, 2024).
In brackets after ≈: the same amount, converted by molar mass. Activity calls are given as the source filed them. The calls are words filed in the database; no cut-off is given here.

What was measured:
[1] = Cytotoxicity against mouse STC-1 cells assessed as reduction in cell viability at 5 to 50 ug/ml after 2 to 24 hrs by MTT assay; type: toxicity, cell-based; details: dose lower 5 µg/ml, time lower 2 hrs, dose upper 50 µg/ml, time upper 24 hrs
[2] = test system: STC-1; test: Agonist activity at Tas2r in mouse STC-1 cells assessed as increase in intracellular calcium level measured every 10 sec for 5 mins by Fluo-4-AM dye based fluorescence analysis; type: cell-based; details: filed as agonist, dose 5-10 µg/ml
[3] = test system: STC-1; test: Anti-obesity activity in mouse STC-1 cells assessed as increase in Tas2r138 mRNA expression level at 5 to 10 ug/ml incubated for 2 hrs by RT-qPCR analysis; type: functional, cell-based; details: dose 5-10 µg/ml
[4] = test system: STC-1; test: Anti-obesity activity in mouse STC-1 cells assessed as increase in GLP-1 secretion at 5 to 10 ug/ml incubated for 120 mins by ELISA; type: functional, cell-based; details: dose 5-10 µg/ml
[5] = test system: STC-1; test: Anti-obesity activity in mouse STC-1 cells assessed as increase in […] mRNA expression level at 5 to 10 ug/ml incubated for 2 hrs by RT-qPCR analysis; type: functional, cell-based; details: dose 5-10 µg/ml
[6] = Anti-obesity activity in mouse STC-1 cells assessed as increase in GLP-1 secretion by measuring fold change at 5 to 10 ug/ml incubated for 120 mins by ELISA; type: functional; details: dose 5-10 µg/ml, 2 h
[7] = Cytotoxicity against mouse STC-1 cells assessed as reduction in cell viability at 50 ug/ml after 2 to 24 hrs by MTT assay; type: toxicity, cell-based; details: time 2-24 hrs, dose 50 µg/ml
[8] = Cytotoxicity against mouse STC-1 cells assessed as cell viability at 10 ug/ml after 24 hrs by MTT assay relative to control; type: toxicity, cell-based; details: at 10 µg/mL, read-out: Activity
[9] = Cytotoxicity against mouse STC-1 cells assessed as reduction in cell viability after 24 hrs by MTT assay; type: toxicity, cell-based
[10] = Anti-obesity activity in mouse STC-1 cells assessed as GLP-1 secretion at 10 ug/ml incubated for 120 mins by ELISA (reference value: 13.29 +/- 1.3 pg/ml); type: functional; details: dose 10 µg/ml, 2 h
[11] = Cytotoxicity against mouse STC-1 cells assessed as reduction in cell viability after 2 hrs by MTT assay; type: toxicity, cell-based
[12] = test system: STC-1; test: Anti-obesity activity in mouse STC-1 cells assessed as increase in CCK secretion at 10 ug/ml incubated for 120 mins by EIA; type: functional, cell-based; details: dose 10.0 µg/ml
[13] = test system: STC-1; test: Anti-obesity activity in mouse STC-1 cells assessed as increase in GLP-1 secretion incubated for 120 mins by ELISA; type: functional, cell-based; details: dose 5-10 µg/ml
[14] = Anti-obesity activity in mouse STC-1 cells assessed as GLP-1 secretion at 5 ug/ml incubated for 120 mins by ELISA (reference value: 13.29 +/- 1.3 pg/ml); type: functional; details: dose 5 µg/ml, 2 h
[15] = test system: STC-1; test: Anti-obesity activity in mouse STC-1 cells assessed as increase in Tas2r119 mRNA expression level at 5 to 10 ug/ml incubated for 2 hrs by RT-qPCR analysis; type: functional, cell-based; details: dose 5-10 µg/ml
[16] = test system: STC-1; test: Anti-obesity activity in mouse STC-1 cells assessed as increase in Tas2r120 mRNA expression level at 5 to 10 ug/ml incubated for 2 hrs by RT-qPCR analysis; type: functional, cell-based; details: dose 5-10 µg/ml
[17] = test system: STC-1; test: Anti-obesity activity in mouse STC-1 cells assessed as increase in Tas2r105 mRNA expression level at 5 to 10 ug/ml incubated for 2 hrs by RT-qPCR analysis; type: functional, cell-based; details: dose 5-10 µg/ml
[18] = Cytotoxicity against mouse STC-1 cells assessed as reduction in cell viability at 5 to 10 ug/ml after 2 to 24 hrs by MTT assay; type: toxicity, cell-based; details: dose lower 5 µg/ml, time lower 2 hrs, dose upper 10 µg/ml, time upper 24 hrs
[19] = test system: STC-1; test: Anti-obesity activity in mouse STC-1 cells assessed as increase in GLP-1 secretion at 10 ug/ml incubated for 120 mins by ELISA; type: functional, cell-based; details: dose 10.0 µg/ml

In the case of CC(C)=CCC1=C(O)[C@@](O)(CC=C(C)C)C(=O)C(C(=O)C(C)C)=C1O, the Activity [1] is reported as “Non-Toxic”, the Activity [2] is reported as “Dose-Dependent Effect” and the Activity [3] is reported as “Active”. For the same compound, the Activity [4] was “inactive” and the Activity [5] was “Active”.
With COc1cc(O)c(CC=C(C)C)c(O)c1C(=O)/C=C/c1ccc(O)cc1 [XANTHOHUMOL] the “fold change (FC)” value [6] was about 2, the Activity [7] was “Toxic” and the Activity [2] was “Dose-Dependent Effect”. The viability at 24 h, 10 ug/ml [8] was 35%, the IC50 at 24 h [9] was 8 µg/mL (≈ 22.6 µM) and the Activity [3] was “Active”. For the same compound, the Activity [10] was 28.39 pg/mL, the IC50 at 2 h [11] was 35.3 µg/mL (≈ 99.6 µM) and the Activity [12] was “Active”. The Activity [13] was “Dose-Dependent Effect” and the Activity [14] was 20.39 pg/mL.
For CC(C)=CCC1=C(O)C(C(=O)C(C)C)=C(O)C(CC=C(C)C)(CC=C(C)C)C1=O, the Activity [15] was “Active”, the Activity [2] was “Dose-Dependent Effect” and the Activity [16] was “Active”. The Activity [3] was “Active”, the Activity [17] was “Active” and the Activity [18] was “Non-Toxic”. The Activity [5] was “Active”, the Activity [19] was “Active” and the Activity [12] was “Active”.
